We go through two sequences from US7037502B2, “Peptide with the amino acid sequence of KVLDGQDP having anti-inflammatory properties” (priority 2001, dated 2006).

“Also recorded” adds a separate entry of the source. Marks after values point to notes of the source that are not given here.

The test system of assay [1] is eosinophil infiltration of conjunctiva. Nature of the assay: Allergic conjunctivitis to ragweed in guinea pig: histology, eosinophil count in conjunctiva. In kind it is in vivo, Hartley female guinea pig. The conditions noted are these: for Anti-inflammatory activity, overall conclusion in words: allergic conjunctivitis model in guinea pig, summary of Example 2; for Statistical evaluation of eosinophil count (Mann-Whitney test), P compared to Dexamethasone / Statistical evaluation of eosinophil count (Mann-Whitney test), P compared to Livostine / Statistical evaluation of eosinophil count (Mann-Whitney test), P compared to No treatment group: eosinophils in three fields of conjunctiva (×400), 12 eyes per group, eye drops. On the procedure: The peptides of the present invention were analyzed in experimental model of allergic conjunctivitis to ragweed (giant ragweed; Ambrosia trifida) in guinea pig. Hartley strain of guinea pig was selected according to previous reports of conjunctival anaphylaxis (Calonge M., et al., Acta Ophthalmol 68; 470–476, 1990) and females were chosen based on the sex dimorphism of ocular mucosal immunity with the protective role of male hormones (Saruya S., et al., Act Soc Ophthalmol Jap 72; 833–845, 1968). The conjunctival redness and edema are main signs of seasonal allergic conjunctivitis and eosionphil infiltration is the hallmark of the conjunctival histology in patients with allergic conjunctivitis (Abelson M B., et al., Arch Ophthalmol. 101; 555–556, 1983; Butrus S I., et al., Int. Ophthalmol. Clin. 28; 324–328, 1988)
86 Hartley female guinea pigs, 200–250 g were housed in the animal facilities of the Asan Institute for Life Sciences (Korea), given guinea pig chow and water ad libitum, and cared for in accordance with the Declaration of Helsinki and the National Institute of Health Guide to the Care and Use of the Laboratory Animals (Korea).
On day 15, immunized guinea pigs were divided 14 groups, 6 for each group. 11 anti-inflammatory peptides including new recombinants, dexamethasone eye drop (Maxidex, 0.1% dexamethasone, Alcon) and anti-histamine eye drop (Livostin, levocabastine, Janssen) were used for 13 groups, and no treatment for one group. Normal controls were employed as 6 non-immunized and non-treated guinea pigs. […] All the procedures were followed experimental model of allergic conjunctivitis described by Merayo-Lloves et al (Experimental model of allergic conjunctivitis to ragweed in guinea pig. Curr. Eye Res. 14; 487–494, 1995).
Anti-inflammatory peptides were resolved in sterile saline (100 μmol/40 μl concentration). All peptides and dexamethasone eye solutions were challenged 3 hour prior to the last pollen application on day 15, 10 minutes after pollen application, and 4 times thereafter at the 3 hour interval.
The orbits were excentrated after the animals were killed with CO2 asphyxia, and specimens were prepared for light microscopic examination. Sectioned specimens were stained with hematoxylin-eosin.
Eosinophils in the standardized fields of conjunctival epithelium, the immediate subepithelial, and the stroma were counted in three non-consecutive fields (magnification ×400) for each treatment in each experiment (12 eyes in each group).

Assay [2] concerns allergic conjunctivitis to ragweed (Ambrosia trifida). Nature of the assay: Allergic conjunctivitis to ragweed in guinea pig: clinical scores (conjunctival edema and redness). Conditions: for Statistical evaluation of clinical scores (Mann-Whitney test), P compared to Dexamethasone / Statistical evaluation of clinical scores (Mann-Whitney test), P compared to Livostine / Statistical evaluation of clinical scores (Mann-Whitney test), P compared to No treatment group: conjunctival edema and redness score 0-4+, 20 min after allergen challenge, 12 eyes per group, eye drops. Format: in vivo, Hartley female guinea pig. On the procedure:
The peptides of the present invention were analyzed in experimental model of allergic conjunctivitis to ragweed (giant ragweed; Ambrosia trifida) in guinea pig. Hartley strain of guinea pig was selected according to previous reports of conjunctival anaphylaxis (Calonge M., et al., Acta Ophthalmol 68; 470–476, 1990) and females were chosen based on the sex dimorphism of ocular mucosal immunity with the protective role of male hormones (Saruya S., et al., Act Soc Ophthalmol Jap 72; 833–845, 1968). The conjunctival redness and edema are main signs of seasonal allergic conjunctivitis and eosionphil infiltration is the hallmark of the conjunctival histology in patients with allergic conjunctivitis (Abelson M B., et al., Arch Ophthalmol. 101; 555–556, 1983; Butrus S I., et al., Int. Ophthalmol. Clin. 28; 324–328, 1988) 86 Hartley female guinea pigs, 200–250 g were housed in the animal facilities of the Asan Institute for Life Sciences (Korea), given guinea pig chow and water ad libitum, and cared for in accordance with the Declaration of Helsinki and the National Institute of Health Guide to the Care and Use of the Laboratory Animals (Korea). […] On day 15, immunized guinea pigs were divided 14 groups, 6 for each group. 11 anti-inflammatory peptides including new recombinants, dexamethasone eye drop (Maxidex, 0.1% dexamethasone, Alcon) and anti-histamine eye drop (Livostin, levocabastine, Janssen) were used for 13 groups, and no treatment for one group. Normal controls were employed as 6 non-immunized and non-treated guinea pigs. […] All the procedures were followed experimental model of allergic conjunctivitis described by Merayo-Lloves et al (Experimental model of allergic conjunctivitis to ragweed in guinea pig. Curr. Eye Res. 14; 487–494, 1995). Anti-inflammatory peptides were resolved in sterile saline (100 μmol/40 μl concentration). All peptides and dexamethasone eye solutions were challenged 3 hour prior to the last pollen application on day 15, 10 minutes after pollen application, and 4 times thereafter at the 3 hour interval. Conjunctival edema and redness were judged in room light and under an operating microscope (Zeiss, Germany). The evaluation was performed in a masked fashion at 20 min after allergen challenge and each clinical sign was scored on a scale 0–4+ (0 absent, 1+ minimal, 2+ mild, 3+ moderate, 4+ severe), adapted for guinea pig from previous report (Merayo-Lloves et al: Experimental model of allergic conjunctivitis to ragweed in guinea pig. Curr. Eye Res. 14; 487–494, 1995). Clinical scores of each group (12 eyes in each group) were analyzed.

[3] abbreviates: n=12, P<0.01, SD<10%, Mann-Whitney test, listed as SEQ ID NO:2.

Take “KVLDGQDP [Peptide R2, synthetic peptide of the invention]”: in assay [1] (listed as SEQ ID NO:2), the “Anti-inflammatory activity, overall conclusion in words” value is “excellent anti-inflammatory activity in comparison with other known peptide sequences; also recorded: much higher activity than the steroidal anti-inflammatory dexamethasone”. Also, in assay [1], the “Statistical evaluation of eosinophil count (Mann-Whitney test), P compared to Dexamethasone” value was 0.001*; the “Statistical evaluation of eosinophil count (Mann-Whitney test), P compared to Livostine” value is given as 0.002*; the “Statistical evaluation of eosinophil count (Mann-Whitney test), P compared to No treatment group” value worked out at 0.000. In addition, the “Histological signs (eosinophil infiltration), result in words” value in assay [1] (setting [3]) is recorded as “statistically significant difference from other groups; also recorded: the most effective”. In addition, in assay [2], the “Statistical evaluation of clinical scores (Mann-Whitney test), P compared to Dexamethasone” value came out at 0.796; the “Statistical evaluation of clinical scores (Mann-Whitney test), P compared to Livostine” value was determined as 0.515; the “Statistical evaluation of clinical scores (Mann-Whitney test), P compared to No treatment group” value was found to be 0.000. Besides, the “Clinical signs (conjunctival redness and edema scores), result in words” value in assay [2] (setting [3]) is “statistically significant difference from other groups; also recorded: most effective”.
Take “KVLDPVKG [Peptide R1, synthetic peptide of the invention]”: in assay [1], the “Anti-inflammatory activity, overall conclusion in words” value is on record as “excellent anti-inflammatory activity in comparison with other known peptide sequences”; the “Statistical evaluation of eosinophil count (Mann-Whitney test), P compared to Dexamethasone” value was 0.001; the “Statistical evaluation of eosinophil count (Mann-Whitney test), P compared to Livostine” value was 0.002; the “Statistical evaluation of eosinophil count (Mann-Whitney test), P compared to No treatment group” value stood at 0.002. For the same sequence, in assay [2], the “Statistical evaluation of clinical scores (Mann-Whitney test), P compared to Dexamethasone” value is 0.000; the “Statistical evaluation of clinical scores (Mann-Whitney test), P compared to Livostine” value was 0.000; the “Statistical evaluation of clinical scores (Mann-Whitney test), P compared to No treatment group” value is reported as 0.965.
